Where a chain is given by its changes, count along the chain named.
Columns and labels:
[1] = target: T1, E129V mutant human TP receptor (Homo sapiens, UniProt P21731, E129V); test: Total inositol phosphate (IP) accumulation, E129V mutant; type: cell-based; conditions: HEK293 cells
T1 construct: expressed in transfected cells; host or cells: HEK293
T1 sequence (P21731 1-343 E129V): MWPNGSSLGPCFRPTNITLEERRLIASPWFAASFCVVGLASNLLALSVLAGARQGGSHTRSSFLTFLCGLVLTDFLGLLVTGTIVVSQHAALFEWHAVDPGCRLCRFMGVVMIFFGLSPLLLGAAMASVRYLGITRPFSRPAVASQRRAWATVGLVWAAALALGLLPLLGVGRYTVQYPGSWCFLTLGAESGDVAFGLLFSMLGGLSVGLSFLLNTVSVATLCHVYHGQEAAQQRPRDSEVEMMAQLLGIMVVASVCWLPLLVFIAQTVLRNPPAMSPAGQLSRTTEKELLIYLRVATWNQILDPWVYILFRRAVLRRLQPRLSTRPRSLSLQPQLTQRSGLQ
Description: (§1) Receptor expression and functional activity were monitored 48 hours after transfection. […] Heterologous competition studies involved concentrations of the indicated unlabeled ligands extending from 0.1 nM to 30 µM. After 30 min incubation at 25 °C, the reaction was stopped by aspiration of the medium, cells were washed with ice-cold PBS containing 0.2% (w/v) BSA and lysed in 0.5 N NaOH. Radioactivity was measured by liquid scintillation counting. Binding data were analyzed as described in Data and Statistical Analysis. Quantification of the total labeled inositol phosphates (IP) accumulation was performed using a conventional gravity flow column chromatography, as described previously, [19]. Briefly, the day before the assay, cells were labeled with 0,5 µCi of [myo-2-^3H]inositol (17 Ci/mmol) for 18–20 hours in serum-free, inositol-free DMEM containing 20 mM HEPES buffer, pH 7.4, and 0.5% (w/v) Albumax I. The day of the assay, media was replaced with serum-free, inositol-free DMEM containing 25 mM LiCl and cells stimulated for 30 min with the indicated agonists. After removal of the medium, cells were lysed with 10 mM formic acid and lysates were applied onto an anion exchange AG 1X-8 column, formate form, 200–400 mesh. The total IP fraction was then eluted with 2 M ammonium formate/formic acid buffer at pH 5 and radioactivity determined by liquid scintillation counting. Rescue experiments were performed essentially as above, except for a 18 hours incubation step with 1 µΜof […] followed by its removal by washing three times with ice-cold PBS containing 1 mM MgCl2 and 0.1 mM CaCl2 before starting the experiment.
(§2) All average results are presented as mean±S.E. When indicated, ANOVA followed by post-hoc test for multiple comparisons was performed. Data from radioligand binding were evaluated by a nonlinear, least-squares curve-fitting procedure using GraphPad Prism version 4, implemented with the n-ligand m-binding site model, as described in the LIGAND computer program. Concentration-response curves were evaluated using Prism 4, which use the four parameters logistic model as described in the ALLFIT program. Parameter errors are all expressed in percentage coefficient of variation (%CV) and calculated by simultaneous analysis of at least two different independent experiments performed in duplicate or triplicate. Parameter comparison has been performed on the base of the F test for extra sum of square principle. All curves shown are computer generated.

E240V mutant TP receptor = test system: E240V mutant TP receptor; set-up: method as in PMID 20383734; conditions: E240V vs WT; cited from earlier work
WT human TP receptor [2] = target: T2, WT human TP receptor (Homo sapiens, UniProt P21731); test: Total inositol phosphate (IP) accumulation, WT receptor; type: cell-based; conditions: HEK293 cells, 30 min stimulation, value ±%CV
T2 construct: expressed in transfected cells; host or cells: HEK293
T2 sequence (P21731 1-343): T1 sequence (P21731 1-343 E129V) with V129E
Description: as §1, §2

WT human TP receptor [3] = target: T2, WT human TP receptor; test: BRET2 measurement of Gq protein activation, WT receptor; type: cell-based; conditions: HEK293 cells, value ±%CV
Excerpt: HEK 293 cells were co-transfected with vectors expressing the GFP^10-Gγ2, Gβ1, Gαq-Rluc8 and WT or E129V mutant of TP receptor to investigate direct G protein activation with an intramolecular bioluminescent resonance energy transfer (BRET^2) strategy. To avoid possible variations in the BRET signaling resulting from fluctuation in the relative expression levels of the energy donor and acceptor, we designed transfection conditions to maintain constant GFP^10 and Rluc8 expression and their ratios in each experimental set. Total fluorescence and luminescence were directly determined in an aliquot of the transfected cells using an Infinite F500 microplate reader (Tecan, Milan, Italy) as previously described. […] 48 hours after transfection, cells were washed once with PBS, detached, and resuspended in PBS+0.1% (w/v) glucose at room temperature. Cells were then distributed (80 µg of proteins per well) into a 96-well microplate (Wallac, Perkin Elmer, Monza, Italy) and incubated in the presence or absence of increasing concentrations of ligands for 2 min before the addition of the luciferase substrate Coelenterazine 400a (5 µM; Biotium, Hayward, CA). BRET signal between Rluc8 and GFP^10 was measured immediately after the addition of the Rluc substrate in the microplate reader. The BRET signal was calculated as the ratio of the light emitted by GFP^10 (510–540 nm) over the light emitted by Rluc8 (370–450 nm). The changes in BRET induced by the ligands were expressed as Òagonist-induced BRETÓ, obtained by subtracting the BRET signal detected in the presence of PBS by the BRET signal detected in the presence of the specific ligand.
as §2
This recorded real time conformational changes between the α and the βγ subunits within the Gq protein, where a decrease of the BRET signal provoked by agonist-induced receptor activation is indicative of a conformational reorganization leading the Gα-Gβγ interface to open, reflects the initial event of Gq protein activation, [23] (Figure 6A).

[4] = E129V, 30 min stimulation, value ±%CV

For CCCCC[C@H](O)/C=C/[C@@H]1[C@@H](C/C=C\CCCC(=O)O)[C@H]2CO[C@@H]1C2 (relative stereo) [U46619, [1R-[1α,4α,5β(Z),6α(1E,3S*)]]-7-[6-(3-hydroxy-1-octenyl)-2-oxabicyclo[2.2.1]hept-5-yl]-5-heptenoic acid], the EC50 [1, 4] was 4.47 nM, the “Emax, total IP” value [1, 4] was 18115±5 dpm/wel and the “Activity ratio (EC50 WT over EC50 E129V), total IP” value ([1]; WT vs E129V) was 22.1. The “Fold lower EC50 than WT, total IP formation” value (E240V mutant TP receptor) was 10 fold, the “Emax, total IP” value (WT human TP receptor [2]; no Gαq overexpression) was 12374±8 dpm/well and the EC50 (WT human TP receptor [2]) was 98.7 ± 70 nM. The EC50 (WT human TP receptor [3]; Gαq-Rluc8/GFP10-Gγ2/Gβ1, 2 min ligand) was 345 ± 14 nM and the “Emax, agonist-induced BRET” value (WT human TP receptor [3]) was −0.07±3.
